Data taken from patent US20070117743A1, “New antitumoral compounds” (priority 2003, published 2007).

Tests used:
Assay type in all cases: cell-based, human
Details in all cases: 48 hours exposure
HeLa-APL = assay: SRB colorimetric assay of cell growth and viability, HeLa-APL
LoVo = assay: SRB colorimetric assay of cell growth and viability, LoVo
LNCaP = assay: SRB colorimetric assay of cell growth and viability, LNCaP
Source text: The finality of this assay is to interrupt the growth of a “in vitro” tumor cell culture by means a continued exhibition of the cells to the sample to be testing.
This form of the assay employs 96 well cell culture microplates of 9 mm diameter (Faircloth, 1988; Mosmann, 1983). Most of the cell lines are obtained from American Type Culture Collection (ATCC) derived from different human cancer types.
Cells are maintained in RPMI 1640 10% FBS, supplemented with 0.1 g/l penicillin and 0.1 g/l streptomycin sulfate and then incubated at 37° C., 5% CO2 and 98% humidity. For the experiments, cells were harvested from subconfluent cultures using trypsin and resuspended in fresh medium before plating.
Cells are seeded in 96 well microtiter plates, at 5×10^3 cells per well in aliquots of 195 μL medium, and they are allowed to attach to the plate surface by growing in drug free medium for 18 hours. Afterward, samples are added in aliquots of 5 μL in a ranging from 10 to 10^−8 μg/mL, dissolved in DMSO:EtOH:PBS (0.5:0.5:99). After 48 hours exposure, the antitumor effect are measured by the SRB methodology: cells are fixed by adding 50 μL of cold 50% (wt/vol) trichloroacetic acid (TCA) and incubating for 60 minutes at 4° C. Plates are washed with deionized water and dried. One hundred μL of SRB solution (0.4% wt/vol in 1% acetic acid) is added to each microtiter well and incubated for 10 minutes at room temperature. Unbound SRB is removed by washing with 1% acetic acid. Plates are air dried and bound stain is solubilized with Tris buffer. Optical densities are read on a automated spectrophotometric plate reader at a single wavelength of 490 nm.
The values for mean+/− SD of data from triplicate wells are calculated. Some parameters for cellular responses can be calculated: GI=growth inhibition, TGI=total growth inhibition (cytostatic effect) and LC=cell killing (cytotoxic effect).

IGROV-ET = assay: SRB colorimetric assay of cell growth and viability, IGROV-ET
IGROV-1 = assay: SRB colorimetric assay of cell growth and viability, IGROV-1
LoVo-Dox = assay: SRB colorimetric assay of cell growth and viability, LoVo-Dox
In short: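 SRB staining (0.4% wt/vol in 1% acetic acid, 10 min, room temperature) of cells fixed with 50% TCA follows a 48-hour exposure to compound. Plating density is 5×10^3 cells/well, and the OD is taken at 490 nm.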

PANC-1 = assay: SRB colorimetric assay of cell growth and viability, PANC-1
HeLa = assay: SRB colorimetric assay of cell growth and viability, HeLa
K-562 = assay: SRB colorimetric assay of cell growth and viability, K-562
DU-145 = assay: SRB colorimetric assay of cell growth and viability, DU-145
SK-MEL-28 = assay: SRB colorimetric assay of cell growth and viability, SK-MEL-28
A-549 = assay: SRB colorimetric assay of cell growth and viability, A-549
HT-29 = assay: SRB colorimetric assay of cell growth and viability, HT-29

What does the source list for `C/C=C1\NC(=O)[C@H](Cc2ccccc2)NC(=O)[C@@H](C(C)C)NC(=O)[C@@H]([C@@H](C)CC)NC(=O)[C@H](NC(=O)[C@H](NC(=O)[C@H](CCCN)NC(=O)[C@H]2CCCN2C(=O)[C@H](NC(=O)[C@@H](NC(=O)[C@@H](NC(=O)[C@H](NC(=O)CCCC(C)C)[C@H](C)O)[C@@H](C)O)C(C)C)C(C)C)[C@@H](C)CC)[C@@H](C)OC(=O)[C@H](C(C)C)NC1=O` [Compound 41, [D-Thr^13]-KF]?
GI50 (HeLa-APL): 1240 nM; TGI HELA-APL (HeLa-APL): 2.15E−06 Molar; CC50 (HeLa-APL; read-out: LC50 HELA-APL): 3740 nM; GI50 (LoVo): 155 nM; TGI LOVO (LoVo): 7.23E−07 Molar; CC50 (LoVo; read-out: LC50 LOVO): 2900 nM; TGI LN-caP (LNCaP): 6.76E−06 Molar; GI50 (LNCaP; read-out: GI50 LN-caP): 2280 nM; CC50 (LNCaP; read-out: LC50 LN-caP): ≥ 6760 nM; GI50 (IGROV-ET): 515 nM; TGI IGROV-ET (IGROV-ET): 1.35E−06 Molar; CC50 (IGROV-ET; read-out: LC50 IGROV-ET): 3160 nM; GI50 (IGROV-1): 777 nM; LC50 (concentration causing 50% net cell killing) (IGROV-1): 3130 nM; TGI IGROV (IGROV-1): 1.56E−06 Molar; GI50 (LoVo-Dox): 126 nM; TGI LOVO-DOX (LoVo-Dox): 2.53E−07 Molar; CC50 (LoVo-Dox; read-out: LC50 LOVO-DOX): 509 nM; GI50 (PANC-1): 2690 nM; TGI PANC-1 (PANC-1): 6.76E−06 Molar; CC50 (PANC-1; read-out: LC50 PANC-1): ≥ 6760 nM; GI50 (HeLa): 1020 nM; TGI HELA (HeLa): 2.00E−06 Molar; CC50 (HeLa; read-out: LC50 HELA): 3940 nM; GI50 (K-562): 5850 nM; TGI K-562 (K-562): 6.76E−06 Molar; CC50 (K-562; read-out: LC50 K-562): ≥ 6760 nM; GI50 (DU-145): 1000 nM; LC50 (concentration causing 50% net cell kill) (DU-145): 3730 nM; TGI DU-145 (DU-145): 1.93E−06 Molar; GI50 (SK-MEL-28): 1230 nM; TGI MEL-28 (SK-MEL-28): 2.20E−06 Molar; CC50 (SK-MEL-28; read-out: LC50 MEL-28): 3960 nM; TGI A-549 (A-549): 2.72E−06 Molar; GI50 (A-549; read-out: GI50 A-549): 1630 nM; CC50 (A-549; read-out: LC50 A-549): 4530 nM; TGI HT-29 (HT-29): 1.57E−06 Molar; GI50 (HT-29; read-out: GI50 HT-29): 730 nM; CC50 (HT-29; read-out: LC50 HT-29): 3410 nM
